# Counter-ions that a name gives are not always drawn.
# Legend:
# [1] = target: human histamine H1 receptor (Homo sapiens, UniProt P35367); assay: Evaluation of Human H1 Receptor Affinity ([3H]pyrilamine binding); set-up: purchased PerkinElmer Inc; host or cells: CHO-K1; settings: inhibition constant Ki, CHO-K1 membrane preparation
# Procedure, shortened: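 Ki values are Cheng-Prusoff conversions of IC50 (Kd 1.1 nM) from radioligand displacement of 1.2 nM [3H]pyrilamine, with 1.0 μM pyrilamine defining nonspecific binding.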
# [2] = target: T1, human histamine H4 receptor (Homo sapiens, UniProt Q9H3N8); assay: Evaluation of Human H4 Receptor Affinity ([3H]histamine binding); settings: inhibition constant Ki, CHO-K1 membrane preparation, read-out: Evaluation of H4 Receptor Affinity
# T1 construct: purchased PerkinElmer Inc; host or cells: CHO-K1
# Procedure, shortened: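 Membranes from CHO-K1 cells expressing human H4 receptor incubated with 8.2 nM [3H]histamine and compound for 90 min at 25 °C in 50 mM Tris-HCl pH 7.4, 1.25 mM EDTA, then filtered and counted. Nonspecific binding defined with 1.0 μM histamine; Ki from IC50 by Cheng-Prusoff using Kd 5.7 nM.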
# Chain of human histamine H1 receptor (P35367 whole entry): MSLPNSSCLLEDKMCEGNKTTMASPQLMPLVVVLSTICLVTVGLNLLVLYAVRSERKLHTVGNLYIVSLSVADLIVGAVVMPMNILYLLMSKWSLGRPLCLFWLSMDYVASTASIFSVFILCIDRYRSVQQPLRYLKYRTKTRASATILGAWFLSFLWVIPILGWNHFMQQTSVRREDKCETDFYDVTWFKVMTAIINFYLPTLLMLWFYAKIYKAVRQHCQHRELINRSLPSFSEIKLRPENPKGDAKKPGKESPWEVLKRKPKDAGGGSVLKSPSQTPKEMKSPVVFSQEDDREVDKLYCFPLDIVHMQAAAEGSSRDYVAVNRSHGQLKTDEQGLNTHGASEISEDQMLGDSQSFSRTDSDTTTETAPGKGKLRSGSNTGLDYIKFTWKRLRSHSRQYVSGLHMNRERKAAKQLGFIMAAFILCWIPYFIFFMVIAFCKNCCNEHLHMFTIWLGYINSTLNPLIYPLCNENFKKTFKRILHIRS
Structure (SMILES),Ki [1],Ki [2]
"NC(=O)COCCOCCN1CCN(c2nc(N)nc3c2CCc2cc(OCc4ccccc4)ccc2-3)CC1 [Example 109, 2-(2-(2-(4-(2-amino-8-(benzyloxy)-5,6-dihydrobenzo[h]quinazolin-4-yl)piperazin-1-yl)ethoxy)ethoxy)acetamide]",< 100 nM,100 to 500 nM
"CS(=O)(=O)NCCOCCOCCN1CCN(c2nc(N)nc3c2CCc2cc(OCc4ccccc4)ccc2-3)CC1 [Example 110, N-(2-(2-(2-(4-(2-amino-8-(benzyloxy)-5,6-dihydrobenzo[h]quinazolin-4-yl)piperazin-1-yl)ethoxy)ethoxy)ethyl)methanesulfonamide dihydrochloride]",< 100 nM,< 100 nM
"COC(=O)COCCN1CCN(c2nc(N)nc3c2CCc2cc(OCc4ccc(Cl)cc4)ccc2-3)CC1 [Example 113, methyl 2-(2-(4-(2-amino-8-((4-chlorobenzyl)oxy)-5,6-dihydrobenzo[h]quinazolin-4-yl)piperazin-1-yl)ethoxy)acetate]",< 100 nM,< 100 nM
"Nc1nc2c(c(N3CCN(CCOCCOc4nnn[nH]4)CC3)n1)CCc1cc(OCc3ccc(Cl)cc3)ccc1-2 [Example 115, 4-(4-(2-(2-((tetrazol-5-yl)oxy)ethoxy)ethyl)piperazin-1-yl)-8-((4-chlorobenzyl)oxy)-5,6-dihydrobenzo[h]quinazolin-2-amine dihydrochloride]",< 100 nM,100 to 500 nM
"Nc1nc2c(c(N3CCN(CCOCCOCC(=O)O)CC3)n1)CCc1cc(OCc3ccccc3)ccc1-2 [Example 119, 2-(2-(2-(4-(2-amino-8-(benzyloxy)-5,6-dihydrobenzo[h]quinazolin-4-yl)piperazin-1-yl)ethoxy)ethoxy)acetic acid bis(trifluoroacetate)]",< 100 nM,100 to 500 nM
"Nc1nc2c(c(N3CCN(CCCCCOCC(=O)O)CC3)n1)CCc1cc(OCc3ccccc3)ccc1-2 [Example 120, 2-((5-(4-(2-amino-8-(benzyloxy)-5,6-dihydrobenzo[h]quinazolin-4-yl)piperazin-1-yl)pentyl)oxy)acetic acid]",< 100 nM,< 100 nM
"CC(OCCOCCN1CCN(c2nc(N)nc3c2CCc2cc(OCc4ccc(Cl)cc4)ccc2-3)CC1)C(=O)O (stereo not shown) [Example 121, 2-(2-(2-(4-(2-amino-8-((4-chlorobenzyl)oxy)-5,6-dihydrobenzo[h]quinazolin-4-yl)piperazin-1-yl)ethoxy)ethoxy)propanoic acid dihydrochloride]",< 100 nM,100 to 500 nM
"CC(OCCCCN1CCN(c2nc(N)nc3c2CCc2cc(OCc4ccc(Cl)cc4)ccc2-3)CC1)C(=O)O (stereo not shown) [Example 123, 2-(4-(4-(2-amino-8-((4-chlorobenzyl)oxy)-5,6-dihydrobenzo[h]quinazolin-4-yl)piperazin-1-yl)butoxy)propanoic acid]",< 100 nM,100 to 500 nM
"Nc1nc2c(c(N3CCN(CCOc4cccc(CC(=O)O)c4)CC3)n1)CCc1cc(OCc3ccc(Cl)cc3)ccc1-2 [Example 130, 2-(3-(2-(4-(2-amino-8-((4-chlorobenzyl)oxy)-5,6-dihydrobenzo[h]quinazolin-4-yl)piperazin-1-yl)ethoxy)phenyl)acetic acid]",< 100 nM,100 to 500 nM
"Nc1nc2c(c(N3CCN(CCOCCn4cc(C(=O)O)cn4)CC3)n1)CCc1cc(OCc3ccc(Cl)cc3)ccc1-2 [Example 133, 1-(2-(2-(4-(2-amino-8-((4-chlorobenzyl)oxy)-5,6-dihydrobenzo[h]quinazolin-4-yl)piperazin-1-yl)ethoxy)ethyl)-1H-pyrazole-4-carboxylic acid dihydrochloride]",< 100 nM,< 100 nM
"Nc1nc2c(c(N3CCN(CCCCOc4ccc(C(=O)O)cc4)CC3)n1)CCc1cc(OCc3ccc(Cl)cc3)ccc1-2 [Example 134, 4-(4-(4-(2-amino-8-((4-chlorobenzyl)oxy)-5,6-dihydrobenzo[h]quinazolin-4-yl)piperazin-1-yl)butoxy)benzoic acid hydrochloride]",< 100 nM,100 to 500 nM
"Nc1nc2c(c(N3CCN(CCOc4ccccc4CC(=O)O)CC3)n1)CCc1cc(OCc3ccc(Cl)cc3)ccc1-2 [Example 136, 2-(2-(2-(4-(2-amino-8-((4-chlorobenzyl)oxy)-5,6-dihydrobenzo[h]quinazolin-4-yl)piperazin-1-yl)ethoxy)phenyl)acetic acid dihydrochloride]",< 100 nM,100 to 500 nM
"Nc1nc2c(c(N3CCN(CCOc4ccc(CC(=O)O)cc4)CC3)n1)CCc1cc(OCc3ccc(Cl)cc3)ccc1-2 [Example 137, 2-(4-(2-(4-(2-amino-8-((4-chlorobenzyl)oxy)-5,6-dihydrobenzo[h]quinazolin-4-yl)piperazin-1-yl)ethoxy)phenyl)acetic acid dihydrochloride]",< 100 nM,< 100 nM
"Nc1nc2c(c(N3CCN(CCOCCn4ccc(C(=O)O)n4)CC3)n1)CCc1cc(OCc3ccc(Cl)cc3)ccc1-2 [Example 138, 1-(2-(2-(4-(2-amino-8-((4-chlorobenzyl)oxy)-5,6-dihydrobenzo[h]quinazolin-4-yl)piperazin-1-yl)ethoxy)ethyl)-1H-pyrazole-3-carboxylic acid dihydrochloride]",< 100 nM,100 to 500 nM
"Nc1nc2c(c(N3CCN(CCc4cccc(OCC(=O)O)c4)CC3)n1)CCc1cc(OCc3ccc(Cl)cc3)ccc1-2 [Example 139, 2-(3-(2-(4-(2-amino-8-((4-chlorobenzyl)oxy)-5,6-dihydrobenzo[h]quinazolin-4-yl)piperazin-1-yl)ethyl)phenoxy)acetic acid dihydrochloride]",< 100 nM,100 to 500 nM
"Nc1nc2c(c(N3CCN(CCCCOC4CC(C(=O)O)C4)CC3)n1)CCc1cc(OCc3ccc(Cl)cc3)ccc1-2 (stereo not shown) [Example 141, 3-(4-(4-(2-amino-8-((4-chlorobenzyl)oxy)-5,6-dihydrobenzo[h]quinazolin-4-yl)piperazin-1-yl)butoxy)cyclobutane-1-carboxylic acid dihydrochloride]",< 100 nM,100 to 500 nM

# The remaining lines, values ahead:
Ki [1],Ki [2],Structure (SMILES)
< 100 nM,100 to 500 nM,"Nc1nc2c(c(N3CCN(CCOCCOCCN4C(=O)c5ccccc5C4=O)CC3)n1)CCc1cc(OCc3ccc(Cl)cc3)ccc1-2 [Example 112, 2-(2-(2-(2-(4-(2-amino-8-((4-chlorobenzyl)oxy)-5,6-dihydrobenzo[h]quinazolin-4-yl)piperazin-1-yl)ethoxy)ethoxy)ethyl)isoindoline-1,3-dione]"
< 100 nM,100 to 500 nM,"CCS(=O)(=O)CCCN1CCN(c2nc(N)nc3c2CCc2cc(OCc4ccc(Cl)cc4)ccc2-3)CC1 [Example 114, 8-((4-chlorobenzyl)oxy)-4-(4-(3-(ethylsulfonyl)propyl)piperazin-1-yl)-5,6-dihydrobenzo[h]quinazolin-2-amine]"
< 100 nM,100 to 500 nM,"Nc1nc2c(c(N3CCN(CCOCc4cc(OCc5ccccc5)no4)CC3)n1)CCc1cc(OCc3ccc(Cl)cc3)ccc1-2 [Example 116, 4-(4-(2-((3-(benzyloxy)isoxazol-5-yl)methoxy)ethyl)piperazin-1-yl)-8-((4-chlorobenzyl)oxy)-5,6-dihydrobenzo[h]quinazolin-2-amine]"
100 to 500 nM,< 100 nM,"COC(=O)C1CN(C(=O)CCCN2CCN(c3nc(N)nc4c3CCc3cc(OCc5ccc(Cl)cc5)ccc3-4)CC2)C1 [Example 117, methyl 1-(4-(4-(2-amino-8-((4-chlorobenzyl)oxy)-5,6-dihydrobenzo[h]quinazolin-4-yl)piperazin-1-yl)butanoyl)azetidine-3-carboxylate]"
< 100 nM,< 100 nM,"NCCOCCOCCN1CCN(c2nc(N)nc3c2CCc2cc(OCc4ccc(Cl)cc4)ccc2-3)CC1 [Example 118, 4-(4-(2-(2-(2-aminoethoxy)ethoxy)ethyl)piperazin-1-yl)-8-((4-chlorobenzyl)oxy)-5,6-dihydrobenzo[h]quinazolin-2-amine]"
< 100 nM,< 100 nM,"Nc1nc2c(c(N3CCN(CCOCCOCC(=O)O)CC3)n1)CCc1cc(OCc3ccc(F)cc3)ccc1-2 [Example 124, 2-(2-(2-(4-(2-amino-8-((4-fluorobenzyl)oxy)-5,6-dihydrobenzo[h]quinazolin-4-yl)piperazin-1-yl)ethoxy)ethoxy)acetic acid]"
< 100 nM,100 to 500 nM,"Nc1nc2c(c(N3CCN(CC(=O)NCCCC(=O)O)CC3)n1)CCc1cc(OCc3ccc(Cl)cc3)ccc1-2 [Example 125, 4-(2-(4-(2-amino-8-((4-chlorobenzyl)oxy)-5,6-dihydrobenzo[h]quinazolin-4-yl)piperazin-1-yl)acetamido)butanoic acid dihydrochloride]"
< 100 nM,< 100 nM,"CCC(OCCOCCN1CCN(c2nc(N)nc3c2CCc2cc(OCc4ccc(Cl)cc4)ccc2-3)CC1)C(=O)O (stereo not shown) [Example 126, 2-(2-(2-(4-(2-amino-8-((4-chlorobenzyl)oxy)-5,6-dihydrobenzo[h]quinazolin-4-yl)piperazin-1-yl)ethoxy)ethoxy)butanoic acid]"
< 100 nM,100 to 500 nM,"Nc1nc2c(c(N3CCN(CCCCn4cc(C(=O)O)cn4)CC3)n1)CCc1cc(OCc3ccc(Cl)cc3)ccc1-2 [Example 132, 1-(4-(4-(2-amino-8-((4-chlorobenzyl)oxy)-5,6-dihydrobenzo[h]quinazolin-4-yl)piperazin-1-yl)butyl)-1H-pyrazole-4-carboxylic acid dihydrochloride]"
< 100 nM,100 to 500 nM,"Nc1nc2c(c(N3CCN(CCc4ccc(OCC(=O)O)cc4)CC3)n1)CCc1cc(OCc3ccc(Cl)cc3)ccc1-2 [Example 140, 2-(4-(2-(4-(2-amino-8-((4-chlorobenzyl)oxy)-5,6-dihydrobenzo[h]quinazolin-4-yl)piperazin-1-yl)ethyl)phenoxy)acetic acid dihydrochloride]"
